Entries after “also recorded” stand apart in the source; their conditions may differ.

Data set [1] concerns HCV. Put plainly: Quantitative analysis of intracellular HCV-RNA (Cobas Ampliprep TaqMan). The data set is classed as cell-based, Hepatitis C virus. Conditions: PBMCs and HepG-2 cells, 72 h; SOV in PBMCs only. As for the experimental part:
(§1) PBMCs were obtained by Ficoll-Hypaque density gradient centrifugation method as described previously. In brief, the blood samples from healthy volunteers were diluted with equal volume of PBS, carefully layered on Ficoll-Hypaque, and centrifuged at 2000 rpm, 25° C. for 30 min. Then the undisturbed PBMCs layer (interface) was carefully transferred out, washed with 40 ml RPMI-1640 medium, and centrifuged at 1650 rpm for 10 min. Finally, the supernatant was removed and the cells were suspended in 5 ml of RPMI-1640 medium containing 10% FBS and counted using trypan blue stain.
(§2) HepG-2 cells were grown in RPMI-1640 medium (HyClone) supplemented with 10% heat-inactivated FBS.
(§3) Serum samples were obtained from HCV and HBV infected […] patients […] after agreement by the ethics committee. The HCV and HBV samples were positive for genotype 4a and D, respectively. The infected patients were neither under treatment prior to the study nor co-infected. The sera were kept at −80° C. until use. […]
(§4) SOV at the concentration of 4 mg was incubated only with HCV or HBV-infected PBMCs due to its potent anti-cancer effect. […] Then the HCV-RNA and HBV-DNA within these cells were quantified using the fully automated Cobas Ampliprep TaqMan Analyzer (CAP-CTM). This technique is one of the most recent techniques that used for diagnosis of viral hepatitis quantitatively. […]
On the technique in general: In qPCR the cycle at which signal appears reflects the starting amount.

Data set [2] deals with HCV. Put plainly: Qualitative screening for HCV (+) strand RNA by RT-nested PCR in infected PBMCs and HepG-2 cells. The data set is classed as cell-based, Hepatitis C virus. Conditions: HCV-infected PBMCs and HepG-2 cells, 72 h; RJ 0.2 and 1 mg, PFs 1 mg, MRJPs 250 μg, SOV 4 mg (PBMCs only). On the procedure: as §1, §2, §3
After cellular infection, the infected medium was replaced with a fresh RPMI-1640 medium containing 10% FBS for positive control wells. […] The HCV (+) strand was detected by reverse transcription-nested polymerase chain reaction (RT-nested PCR) using the Ready-To-Go RT-PCR beads (Amersham Pharmacia Biotech, Piscataway, N.J., USA) following the instructions. […]

A further data set has as its system HBV. Briefly: Quantitative analysis of intracellular HBV-DNA (Cobas Ampliprep TaqMan). The data set is classed as cell-based, hepatitis B virus. Conditions: PBMCs and HepG-2 cells, 72 h; SOV in PBMCs only. As for the experimental part:
as §1, §2, §3, §4

Data set [3] can be described thus: Acute toxicity (Karber's method). The data set is classed as in vivo, male Albino rats. As for the experimental part: Karber's method was used to study the acute toxicity effect of RJ in comparison with SOV using male Albino rats and the median lethal dosage (LD50) was calculated.
Fifty-five male Albino rats (80-120 g) were purchased from MISR University for Science and Technology (animal welfare assurance number A5865-01). Animals were housed in metal cages and allowed free access to a standard commercial diet and tap water. Rats were kept under conventional conditions of temperature, humidity and twelve hours light/dark cycle. All rats were acclimatized to the laboratory environment for one week prior to handling and were observed daily for abnormal signs. Handling of animals complied with the international guide for the care and use of laboratory animals (National Research Council, 1996).
Animals were divided into eleven groups (five animals in each) starting from group I to group X beside the control (received only water as the vehicle). Groups from (I) to (V) were administered RJ intraperitoneally, while groups from (VI) to (X) were orally received SOV using the gavage tube. RJ and SOV were given to the animals at various doses (140, 350, 700, 2500 and 5000 mg/kg bw), one dose for each group of animals (group I and VI received the lowest dose).
All animals were left for 24 h after RJ or SOV administration, and then the number of mortality in each group was recorded for calculation of the LD50 value. Also, the weights of animals in each group were recorded before sacrificing by decapitation. Blood samples were collected in heparin tubes by cardiac puncture for assessment of the erythrocytes, hematocrit (HCT), hematimetric indices, hemoglobin (Hb), platelets, and leukocytes (full and differential counts). In addition, ALT and AST, total proteins, albumin, urea, creatinine, sodium, potassium, triglycerides (TG) and cholesterol were determined using available commercial kits (RAM, Egypt). The vital organs including liver, lung, kidney, and spleen were carefully excised, weighed and examined.

A further data set relates to hepatocytes. Put plainly: In vitro assessment of liver fibrosis: CCl4-induced fibrosis in hepatocytes. In kind it is cell-based, Albino rats. On the procedure:
Hepatocytes were isolated from the liver of two male Albino rats 1 week of age. Rats were anesthetized, then liver was dissected, washed and incubated for 15 min with 10× penicillin and streptomycin. Afterward, the liver was washed using PBS, minced and incubated for 30 min with 3 U/mL of collagenase I with gentle shaking to obtain the cell suspension. The solution was centrifuged for […] at 1000 rpm and the pellet (hepatocytes) was washed, suspended in William's E medium containing 10% FBS and incubated at […] in CO2 incubator. After 90% cell confluent, hepatocytes were passaged with trypsin-EDTA. Then cells were stained with trypan blue, checked for viability and counted using the phase contrast inverted microscope (Olympus IX 81, Tokyo, Japan).
For induction of fibrosis, hepatocytes were incubated with various concentrations (0.13-1.30 mM) of CCl4 for 48 h. At the end of the incubation period, the cell viability was assessed and the IC50 value (half maximal inhibitory concentration of CCl4 to the hepatocytes growth) was calculated by the GraphPad Instat software version 3. This value was used for in vitro induction of fibrosis in hepatocytes (FM). After induction, Fb1 was incubated with the safe concentration of each of the studied compounds and incubated for 72 h at 5% CO2 and 37° C. The normal cells and the untreated Fb1 (Fb) were involved as negative and positive control cells, respectively.
At the end of the incubation period, media were collected and used in the assessment of the hepatocyte damage indices. However, cells were examined morphologically for identification of apoptosis.
Alanine and aspartate aminotransferases (ALT and AST), and albumin were determined using available commercial kits (RAM, Egypt). TNF-α (ELISA kit, RayBiotech, USA) and collagen IV (ELISA kit, Kamiya Biomedical) were determined following the manufacturer's instructions. Nitric oxide (NO) level was assessed by measurement of the nitrite using the Griess reaction, which produced colored azo dye with a maximum absorbance at 490 nm. Hydroxyproline content in the medium was measured using chloramines T and […] solutions. The absorbance of the produced color was read spectrophotometrically at 560 nm and the concentration was determined from the hydroxyproline calibration curve.
Apoptosis was investigated by double staining cells after washing with PBS with 100 μg/mL of ethidium bromide (EB) and acridine orange (AO) as described previously and then visualized under the fluorescent phase contrast microscope.

For a further data set, the system named is HepG-2 cell line. Briefly: Anti-cancer assay (MTT). The data set is classed as cell-based, human. Conditions: HepG-2 cells, 72 h. On the procedure:
The cytotoxic effect of RJ and its isolated PFs against HepG-2 cell line were evaluated. The cell viability was determined by MTT assay to investigate the cytotoxicity. Cells (3×10^3/well) were seeded in 96-well plate and left to attach for overnight. Serial concentrations (6.25-100 μM) of each of the tested compounds were added to the attached cells and incubated for 72 h at 37° C. in an atmosphere of 5% CO2 and the untreated cells were included as negative control. Then, 20 μl of MTT solution (0.5 mg/ml) was added to each well and the plate was incubated at 37° C. and 5% CO2 for 4 h. The medium with MTT was replaced by 150 μl of DMSO and the absorbance of the produced color was read at 570 nm by the microplate reader. The concentration of each of the studied compounds that inhibit the cancer cell growth by 50% (IC50 values) was determined from the dose-response curves. Additionally, the morphological changes of the tumor cells were examined using the phase-contrast microscope.

The mark [4] stands for this setting: SOV oral 2500 and 5000 mg/kg bw.

With `CC(C)OC(=O)[C@H](C)N[P@](=O)(OC[C@H]1O[C@@H](n2ccc(=O)[nH]c2=O)[C@](C)(F)[C@@H]1O)Oc1ccccc1` [SOV, Sofosbuvir], the “efficacy against HCV (intracellular HCV)” value with HCV [1] is “less anti-HCV”. The “anti-HCV effect (HCV (+) strand RNA, RT-nested PCR)” value in the data set on HCV [2] is reported as “anti-HCV effect”. Moreover, in the data set on HBV, the “efficacy against HBV / activity of HBV (intracellular HBV)” value is on record as “increases the activity of HBV”. Besides, the body weights entry in data set [3] (24 h, all doses, versus control group) is given as “didn't cause any significant change; also recorded: no significant change”. Further, the hematological parameters entry in data set [3] (24 h after administration) was “Slight changes”. Moreover, the serum urea level entry in data set [3] (SOV 350-5000 mg/kg bw) is listed as “significant elevation”. Besides, in data set [3] (SOV 2500, 5000 mg/kg bw), the potassium level result is “depleted” and the serum sodium level result is reported as “elevated”. Also, in data set [3] (SOV 2500 and 5000 mg/kg bw), the ALT activity entry is reported as “didn't affect”, the “activity of AST” value was “significantly elevated”, the “serum level of albumin” value is “significantly reduce” and the total proteins level result is “didn't affect”. Further, in data set [3] (SOV nearly at all doses), the TG level entry is given as “significantly increased” and the cholesterol level entry was “significantly increased”. Also, the “% organ-body weight ratio, spleen” value in data set [3] (SOV oral 350 to 5000 mg/kg bw) is recorded as “enlargement”. Further, in data set [3] (setting [4]), the “% organ-body weight ratio, liver” value was “significant enlargement” and the “% organ-body weight ratio, lung” value is given as “significant enlargement”. In addition, the “% organ-body weight ratio, kidney” value in data set [3] (SOV oral all given doses (140-5000 mg/kg bw)) is “significant enlargement”. In addition, the mortality entry in data set [3] (after 24 h, all studied doses (140-5000 mg/kg bw), RJ intraperitoneal, SOV oral) is “no mortality”. In addition, the toxic dose in data set [3] (rats, all the studied doses) is on record as ≥ 0.14 g/kg. Further, the “toxicity on vital organs” value in data set [3] (rats, liver, lung, kidney, spleen) is “highly toxic effects on kidney, spleen and lung and less toxicity on the liver; also recorded: highly toxic”. In addition, in the data set with hepatocytes (CCl4-induced fibrosis in hepatocytes (Fb1)), the “collagen and hydroxyproline levels” value is “suppressive effect”. Further, the “antifibrotic / therapeutic effect overall” value in the data set with hepatocytes (CCl4-induced fibrosis in hepatocytes, compared with SM and SOV) is given as “less antifibrotic activities”. Moreover, the “inflammatory mediators' level (NO and TNF-α)” value in the data set with hepatocytes (fibrotic cells (Fb1)) is reported as “anti-inflammatory effect”. Moreover, the “hepatocytes morphology / apoptosis (acridine orange/ethidium bromide staining)” value in the data set with hepatocytes (fibrotic hepatocytes (Fb1), 72 h treatment, 200 μg/mL) is on record as “less potency”. Further, the “cytotoxic (anticancer) effect” value in the data set on HepG-2 cell line is reported as “potent activity”. Moreover, the “cytotoxic (anticancer) effect” value in the data set with HepG-2 cell line (listed as Sovaldi) was “more potent anticancer effect than the RJ proteins”.

B1: MRJP2: major royal jelly protein 2, bound protein purified from PF50 by CM-Sephadex ion-exchange chromatography (protein, UniProt O77061 18-452, looked up)
Major royal jelly protein 2: AIVRENSPRNLEKSLNVIHEWKYFDYDFGSEERRQAAIQSGEYDHTKNYPFDVDQWRDKTFVTILRYDGVPSTLNVISGKTGKGGRLLKPYPDWSFAEFKDCSKIVSAFKIAIDKFDRLWVLDSGLVNRTVPVCAPKLHVFDLKTSNHLKQIEIPHDIAVNATTGKGGLVSLAVQAIDLANTLVYMADHKGDALIVYQNADDSFHRLTSNTFDYDPRYAKMTIDGESFTLKNGICGMALSPVTNNLYYSPLASHGLYYVNTAPFMKSQFGENNVQYQGSEDILNTQSLAKAVSKNGVLFVGLVGNSAVGCWNEHQSLQRQNLEMVAQNDRTLQMIAGMKIKEELPHFVGSNKPVKDEYMLVLSNRMQKIVNDDFNFDDVNFRILGANVKELIRNTHCVNNNQNDNIQNTNNQNDNNQKNNKKNANNQKNNNQNDN
In the case of B1, the “anti-HCV effect (HCV (+) strand RNA, RT-nested PCR)” value with HCV [2] is given as “anti-HCV effect”. Besides, in the data set with hepatocytes (fibrotic cells (Fb1)), the “inflammatory mediators' level (NO and TNF-α)” value is recorded as “Normalization”; the “liver function parameters (ALT, AST, albumin) in medium” value was “Improvement”. Besides, the “cytotoxic (anticancer) effect” value in the data set with HepG-2 cell line was “nearly as potent as SOY and 5-FU”.

The values above are taken from patent publication US20200207820A1, “ANTIVIRAL, ANTIFIBROTIC AND ANTICANCER ACTIVITIES OF ROYAL-JELLY PROTEINS” (priority 2017, published 2020).
